Data set [1] in a line: Binding affinity to recombinant influenza A virus A/WSN/33(H1N1) hemagglutin assessed as dissociation constant by surface plasmon resonance assay. Further details: species or system Influenza A virus (A/WSN/1933(H1N1)). (In general: In SPR one partner is held on a chip, and binding of the other changes the refractive index at the surface.)
In data set [2] the test system is Influenza A virus. In words: Antiviral activity against Influenza A virus A/WSN/33(H1N1) infected in MDCK cells assessed as inhibition of virus-induced cytopathic effects at 50 uM after 36 hrs by microscopic analysis. In kind it is functional, A/WSN/1933(H1N1). Further details: scale not given: the % may be the effect or the level left.
In data set [3] the test system is Influenza A virus (A/WSN/1933(H1N1)). In words: Binding affinity to recombinant influenza A virus A/WSN/33(H1N1) hemagglutin assessed as association constant by surface plasmon resonance assay.
The nature of data set [4]: Binding affinity to recombinant influenza A virus A/WSN/33(H1N1) hemagglutin by surface plasmon resonance assay. On the set-up: species or system Influenza A virus (A/WSN/1933(H1N1)).
For another data set, the system named is MDCK. In words: Cytotoxicity against dog MDCK cells assessed as reduction in cell viability at 50 uM measured after 36 hrs by Celltiter-Glo luminescence assay. Type of data set: cell-based, Canis lupus familiaris. On the technique in general: Cellular ATP, detected with luciferase, serves as a proxy for viable cell number.
For data set [5], the system named is Influenza A virus. In words: Antiviral activity against Influenza A virus A/WSN/33(H1N1) infected in MDCK cells assessed as inhibition of viral replication measured after 36 hrs by CellTiter-Glo assay. In kind it is functional, organism-based. To be noted: A/WSN/1933(H1N1).
The nature of data set [6]: Selectivity ratio of CC50 for MDCK cells to IC50 for Influenza A virus A/WSN/33(H1N1) infected in MDCK cells. Type of data set: toxicity, cell-based. The settings on record: dog, read-out: Ratio CC50/IC50.
Data set [7] in a line: Cytotoxicity against dog MDCK cells assessed as reduction in cell viability measured after 36 hrs by Celltiter-Glo luminescence assay. In kind it is cell-based, Canis lupus familiaris.
For data set [8], the system named is Influenza A virus. In words: Antiviral activity against Influenza A virus A/WSN/33(H1N1) infected in MDCK cells assessed as inhibition of viral replication at 100 uM measured after 36 hrs by CellTiter-Glo assay. Type of data set: functional, organism-based. To be noted: A/WSN/1933(H1N1).
Data set [9] in a line: Drug uptake in dog MDCK cells assessed as increase in red fluorescence at 25 uM incubated for 36 hrs by flow cytometry analysis. In kind it is ADME, cell-based, Canis lupus familiaris. In general terms: Flow cytometry measures light scatter and fluorescence of single cells or particles in a stream.
Data set [10] has as its system Influenza A virus. In words: Antiviral activity against Influenza A virus A/WSN/33(H1N1) infected in MDCK cells preincubated with cells for 5 hrs followed by viral infection. Type of data set: functional, organism-based. To be noted: A/WSN/1933(H1N1).
Data set [11] can be described thus: Drug localization in cytoplasm of MDCK cells at 25 uM incubated for 12 hrs by confocal microscopy analysis. In kind it is ADME, subcellular, Canis lupus familiaris. The settings on record: dog.
Data set [12] can be described thus: Stability of compound in dog MDCK cells after 36 hrs. Type of data set: ADME, cell-based, Canis lupus familiaris.
Data set [13] in a line: Drug uptake in dog MDCK cells assessed as increase in red fluorescence at 25 uM incubated for 1 hr by flow cytometry analysis. Type of data set: ADME, cell-based, Canis lupus familiaris.
Data set [14] in a line: Drug localization in cell membrane of MDCK cells at 25 uM incubated for 1 to 3 hrs by DOI staining based confocal microscopy analysis. In kind it is ADME, cell membranes, Canis lupus familiaris. The settings on record: dog, time 1-3 hrs.
Data set [15] concerns Influenza A virus. In words: Antiviral activity against Influenza A virus A/WSN/33(H1N1) infected in MDCK cells assessed as inhibition of virus-induced cell death at 50 uM preincubated with virus for 30 mins followed by cell infection for 1 hr and measured after 36 hrs. In kind it is functional, A/WSN/1933(H1N1). Further details: scale not given: the % may be the effect or the level left. To be noted: time 2250 min, 37.5 h.

Data set [16] has as its system Influenza A virus. In words: Antiviral activity against Influenza A virus A/WSN/33(H1N1) infected in MDCK cells assessed as inhibition of virus-induced cell death at 50 uM preincubated with cells for 30 mins followed by viral infection for 1 hr and measured after 36 hrs. Further details: scale not given: the % may be the effect or the level left. Type of data set: functional, A/WSN/1933(H1N1). The settings on record: time 2250 min, 37.5 h.

The subject of another data set is Erythrocyte. In words: Inhibition of Influenza A virus A/WSN/33(H1N1) hemagglutinin assessed as inhibition of chicken erythrocytes hemagglutination upto 20 uM incubated for 30 mins. Type of data set: cell-based. The settings on record: Influenza A virus (A/WSN/1933(H1N1)), dose microM <=20, time 30.0 min.
The nature of data set [17]: Drug uptake in dog MDCK cells assessed as increase in red fluorescence at 25 uM incubated for 3 hrs by flow cytometry analysis. Type of data set: ADME, cell-based, Canis lupus familiaris.
Data set [18] deals with Influenza A virus. In words: Antiviral activity against Influenza A virus A/WSN/33(H1N1) infected in MDCK cells assessed as reduction in antiviral activity preincubated with cells for 3 hrs followed by viral infection. In kind it is functional, A/WSN/1933(H1N1). Further details: scale not given: the % may be the effect or the level left.
In data set [19] the test system is Influenza A virus. In words: Antiviral activity against Influenza A virus A/WSN/33(H1N1) infected in MDCK cells preincubated with cells for 12 hrs followed by viral infection. In kind it is functional, organism-based. The settings on record: A/WSN/1933(H1N1).
Data set [20] concerns Influenza A virus. In words: Antiviral activity against Influenza A virus A/WSN/33(H1N1) infected in MDCK cells assessed as inhibition of virus-induced cell death at 50 uM cotreated with virus and cells for 1 hrs and measured after 36 hrs. In kind it is functional, A/WSN/1933(H1N1). Further details: scale not given: the % may be the effect or the level left. To be noted: time 37 hrs.

The source made the active and inactive calls. The rule behind the calls is not given here.

Broadly, the Kd is the equilibrium constant for the complex coming apart. As usually defined, the IC50 is the concentration at which inhibition is half-maximal. One may read the CC50 as the concentration that lowers cell viability or growth by half.

Take `C[C@H]1[C@H](C)CC[C@]2(C(=O)O)CC[C@]3(C)C(=CC[C@@H]4[C@@]5(C)CC[C@H](O)C(C)(C)[C@@H]5CC[C@]43C)[C@@H]12`: the Kd was 7.1 10^-2/s in data set [1] and 41 µM in data set [4]. Further, the Activity with Influenza A virus [2] came out at 31%. In addition, in [3], the Ka is 1.73 10^3/M.s.

As to `CC1(C)CC[C@]2(C(=O)O)CC[C@]3(C)C(=CC[C@@H]4[C@@]5(C)CC[C@H](O)C(C)(C)[C@@H]5CC[C@]43C)[C@H]2C1`, in the data set with Influenza A virus [2], the Activity turned out to be 17%.

As for `C=C(C)[C@@H]1CC[C@]2(C(=O)NCCN3C(=O)c4ccccc4C34c3ccc(N(CC)CC)cc3Oc3cc(N(CC)CC)ccc34)CC[C@]3(C)[C@H](CC[C@@H]4[C@@]5(C)CC[C@H](O)C(C)(C)[C@@H]5CC[C@]43C)[C@@H]12`, the Activity entry with MDCK is given as “Non-Toxic”. The IC50 in the data set on Influenza A virus [5] stood at 8.36 µM. Further, in data set [6], the selectivity ratio is 38.8. Further, the CC50 at 36 h in data set [7] turned out to be 324 µM.

As to `CCN(CC)c1ccc2c(c1)Oc1cc(N(CC)CC)ccc1C21c2ccccc2C(=O)N1CCNC(=O)[C@]12CCC(C)(C)C[C@@H]1C1=CC[C@@H]3[C@@]4(C)CC[C@H](O)C(C)(C)[C@@H]4CC[C@@]3(C)[C@]1(C)C[C@H]2O`, the Activity with Influenza A virus [2] is more than 90%; with MDCK, “Non-Toxic”. For the same compound, the IC50 with Influenza A virus [5] came out at 13.3 µM.

Regarding `CCN(CC)c1ccc2c(-c3ccccc3C(=O)O)c3ccc(=[N+](CC)CC)cc-3oc2c1` [RHODAMINE], the outcome in the data set on Influenza A virus [8] was inactive. In the data set with Influenza A virus [5], the half-inhibitory concentration (IC50) was more than 100 µM.

Consider `CCN(CC)c1ccc2c(c1)Oc1cc(N(CC)CC)ccc1C21c2ccccc2C(=O)N1CCNC(=O)[C@]12CCC(C)(C)C[C@@H]1C1=CC[C@@H]3[C@@]4(C)CC[C@H](O)C(C)(C)[C@@H]4CC[C@@]3(C)[C@]1(C)CC2`, for which the results for the Activity in the data set on Influenza A virus [2] and in the data set on MDCK were more than 90% and “Non-Toxic”, respectively. In addition, the IC50 in the data set on Influenza A virus [5] is 14.3 µM.

For `CCN(CC)c1ccc2c(c1)Oc1cc(N(CC)CC)ccc1C21c2ccccc2C(=O)N1CCNC(=O)[C@]12CC[C@@H](C)[C@H](C)[C@@H]1C1=CC[C@@H]3[C@@]4(C)CC[C@H](O)C(C)(C)[C@@H]4CC[C@@]3(C)[C@]1(C)CC2`, the Kd in [1] was 4.14 10^-2/s; in [4], 17.8 µM. Further, the Activity in the data set on Influenza A virus [2] was more than 90%; in the data set on MDCK, “Non-Toxic”; with Influenza A virus [15], 95%; in the data set on Influenza A virus [16] it was 15%; in the data set on Influenza A virus [18] it was 25%; with Influenza A virus [20], 91%. In the data set with Influenza A virus [2] (A/WSN/1933(H1N1)), the result was Active. Besides, the Drug uptake in data set [9] is reported as 97.5%; in data set [11], “Active”; in data set [13], 52.4%; in data set [14], “Active”; in [17] it was 62.6%. In addition, the result with Influenza A virus [10] and in the data set with Influenza A virus [19] was inactive. Also, the Stabilty result in [12] is listed as “Stable”. Besides, the Ka in data set [3] was 2.33 10^3/M.s. Also, the inhibition entry with Erythrocyte is “Active”. Further, the IC50 in the data set with Influenza A virus [5] was found to be 8.24 µM. Besides, in data set [6], the selectivity ratio is 44.7. The half-maximal cytotoxic concentration (CC50) at 36 h in [7] was found to be 368 µM.

Values taken from ChEMBL document CHEMBL4765414, “Rhodamine B-based fluorescent probes for molecular mechanism study of the anti-influenza activity of pentacyclic triterpenes” (Eur J Med Chem, 2020).
